According to patent US10822317B2, “Methods and compositions for wound healing” (QBiotics Limited, priority 2013, dated 2020):

Key:
[1] = system: infected bone wound; infectious vasculitis in the ear; experiment: Veterinary case studies 8 and 9, tree kangaroo wounds; format: in vivo, Dendrolagus lumholtzi
Description: Seven dogs (Canis lupus familiaris) and one tree kangaroo (Dendrolagus humholzii) with chronic, non-healing wounds that were unresponsive to current veterinary standards-of-care for these indications were treated with Compound 1 by independent veterinarians. A second tree kangaroo and a spectacled flying fox (Pteropus conspicillatus) with wounds unsuited for initial treatment with current standards-of-care were also treated with Compound 1. All cases were managed as open wounds without the use of dressings or other bandaging during the course of treatment with Compound 1 and the subsequent period of wound resolution. Unless stated in individual case studies, no concomitant medications were used over the course of treatments with Compound 1.
The patient was treated for 1 month with injectable antibiotics ceftazidime (Fortum) and trimethoprim sulphamethoxazole (TMS). […] Within 10 minutes of the application of Compound 1 gel there was a purulent discharge from the treated area. • On presentation 8 days after the first treatment a purulent discharge was oozing from 2 of the 3 wounds on the leg. The other wound (smallest lesion on the heal) had contracted and commenced healing. A further treatment of 0.15 mL of 5 mg/mL gel formulation of Compound 1 was used to treat each of the two open wounds (one over the ankle joint, the other on the base of the foot pad). A slow IV. infusion of sodium iodide was also given. • A further 15 days later (23 days after initial treatment) several mLs of thick purulent pus was squeezed from the wound on the pad of the foot before forcing 0.15 mL of 5 mg/mL gel formulation of Compound 1 into the drained wound sinus. • One week later there was significant improvement. in the infection. A small piece of bone was removed from the hole in the foot pad. There was no pus evident but there was a serous discharge. A further 0.2 mL. of the Compound 1 gel was applied to each of lesions, one over the ankle, the other underneath the foot. A slow IV infusion of sodium iodide was also delivered. Limb is now weight bearing. but the heal and foot pad is still very firm with inflammation and the animal's gait is very uneven and strongly favouring the undamaged hind leg. • A further 15 days later the wound over the ankle joint had fully closed and hair was growing back. The wound on the heal of the foot pad had contracted to less than 50% of its size at the previous visit and the surrounding skin and tissue is soft, pliable and normal.
Case notes: • The patient presented as a young injured animal found in the wild. • Patient was very weak, dehydrated and anaemic. […] Patient was placed on fluid therapy and medicated with anti-nausea drug maropitant citrate (cerenia) and two injectable antibiotic formulations Tribacteral (trimethoprim, sulfadiazine) and ceftazidime (fortum). • After 9 days on a fluid drip the patient's condition had improved but there was trauma to the right ear and likely infectious vasculitis and gangrene. Surgery was not possible because of significant anaesthetic risk due to the patient's highly compromised condition. Instead, treatment with a gel formulation of Compound 1 was initiated. • Three treatments of 0.1 mL of 5 mg/mL strength Compound 1 gel were applied to the affected area at 7 day intervals. The only concurrent medication during this time was the cephalosporin antibiotics deftazidime (fortum). • At 7 days after the first treatment of Compound 1 gel, a tightly adhering eschar covered the wound surface.

[2] = system: HaCaT cells; experiment: HaCaT proliferation (MTT); format: cell-based, human; set-up: dose or concentration left out as unconfirmed; conditions: 24, 48, 120 and 168 hr; p<0.01
Text: The proliferation experiment assessed the effects of the two compounds on HaCaT proliferation (as measured by MTT) in the culture system at 4 time periods (24, 48, 120 and 168 hr).

[3] = system: TGF-β1-stimulated dermal fibroblasts; experiment: Differentiation of adult dermal fibroblasts into myofibroblasts (α-SMA expression); format: cell-based, human
Description: The effects of Compounds […] and 37 on dermal fibroblast differentiation to myofibroblasts was examined by the extent of α-SMA expression by TGF-βi-stimulated dermal fibroblasts.
Following trypsinization, fibroblasts were seeded in 8-well, Permanoxchamber slides (VWR International) in DMEM medium, containing antibiotics, 2 mM L-glutamine and 10% foetal calf serum (250 μL, all purchased from Invitrogen); at a cell density of 2.5×10^4 cells/well and maintained at 37° C. in 5% CO2/95% air for 48 h.
At 48 hr, fibroblasts were growth-arrested in serum-free DMEM for 48 hr and then replaced with serum-free DMEM (250 μL), containing Compounds 1 or 37 at concentrations of 0, 0.001, 0.01, 0.1, 1.0 and 10.0 μg/mL (3 wells/concentration/compound) and TGF-β1 (10 ng/ml, Peprotech). Fibroblasts were maintained at 37° C. in 5% CO2/95% air for 72 hr.
At 72 hr, chamber slide wells were washed with PBS (×1, 250 μL) and fixed in 4% paraformaldehyde (100 μL/well) for 10 min. The chamber slide wells were then washed again with PBS (×1, 250 μl), treated with 0.1% Triton X-100 in PBS (100 μL, Sigma) for 5 min and re-washed with PBS (×1, 250 μL). Wells were blocked with 1% BSA in PBS (250 μL, Sigma) for 1 h and washed (×3) in 0.1% BSA/PBS.
Wells were incubated with monoclonal mouse anti-human α-SMA, clone 1A4 (1:100, 150 ul, Sigma) at 4° C. overnight, washed (×6) in 0.1% BSA/PBS and incubated with Alexa Fluor 488 goat anti-mouse IgG antibody (1:1000, 250 μL, Invitrogen), at room temperature for 1 h, under darkness. Chamber slides were washed (×6) in 0.1% BSA/PBS and counterstained with Hoescht 33258 solution for 30 min under darkness (1:2000, 250 μL, Sigma). Chamber were subsequently removed for slides and treated with Fluorsave (Santa Cruz) for 10 min under darkness. Slides were viewed by fluorescence microscopy (Leica Microsystem), with digital images being capturedat ×200 magnification. Digital images were processed using HC Image J Software.

[4] = Case 8, 15 days after the fourth application

In the case of CC=C(C)C(=O)OC1C(C)C2(O)C(C3OC3(CO)C(O)C3(O)C(=O)C(C)=CC32)C2C(C)(C)C12OC(=O)C(C)CC (centres unmarked) [Compound 1, 12-tigloyl-13-(2-methylbutanoyl)-6,7-epoxy-4,5,9,12,13,20-hexahydroxy-1-tigliaen-3-one], the “time to purulent discharge from the treated area” value ([1]; Case 8, tree kangaroo, infected bone wound, first application 0.1 mL gel 5 mg/mL per lesion) is reported as no more than 10 min, the “wound outcome, wound over the ankle joint” value ([1]; Case 8, 4 applications gel 5 mg/mL, 15 days after the fourth application) is reported as “fully closed” and the limb function [1, 4] is reported as “fully weight bearing”. The “wound on the heal of the foot pad, % of its size at the previous visit” value [1, 4] was “less than 50%”, the “reduction of wound area” value ([1]; Case 9, tree kangaroo, ear, 3 x 0.1 mL gel 5 mg/mL at 7 day intervals, 14 days after initial treatment) was “approximately 50%” and the wound status ([1]; Case 9, 25 days) was “healthy tissue was present over the entire area of the wound”. For the same compound, the wound outcome ([1]; Case 9, 67 days) was “totally resolved and there was full hair coverage over the ear”, the “proliferation of HaCaT cells (MTT) vs control with no compound” value [2] was “increasing proliferation” and the “differentiation of TGF-β1-treated adult dermal fibroblasts into myofibroblasts” value ([3]; 0.001 to 10.0 μg/mL, 72 hr) was “affected differentiation into myofibroblasts in a concentration-dependent manner”. The “α-SMA stress fibre formation and polygonal cellular morphology (myofibroblast differentiation)” value ([3]; TGF-β1 10 ng/ml, 72 hr, 0.1 μg/mL) was “lacked the α-SMA stress fibre formation and the typical polygonal cellular morphology” and the myofibroblast morphology ([3]; between 1 and 10 μg/mL) was “subtle alterations in myofibroblast morphology”.
